Patent US20220033397A1, “PHARMACEUTICAL COMPOUNDS AND THEIR USE AS INHIBITORS OF UBIQUITIN SPECIFIC PROTEASE 19 (USP19)” (ALMAC DISCOVERY LIMITED, priority 2018, published 2022)
pIC50: −log10 of the molar value.

Biological target: T1, Full-length USP19 (Homo sapiens, UniProt O94966)
T1 construct: Full-length USP19 was purchased from Boston Biochem (E-576); purchased Boston Biochem E-576
T1 sequence (O94966 1-1318): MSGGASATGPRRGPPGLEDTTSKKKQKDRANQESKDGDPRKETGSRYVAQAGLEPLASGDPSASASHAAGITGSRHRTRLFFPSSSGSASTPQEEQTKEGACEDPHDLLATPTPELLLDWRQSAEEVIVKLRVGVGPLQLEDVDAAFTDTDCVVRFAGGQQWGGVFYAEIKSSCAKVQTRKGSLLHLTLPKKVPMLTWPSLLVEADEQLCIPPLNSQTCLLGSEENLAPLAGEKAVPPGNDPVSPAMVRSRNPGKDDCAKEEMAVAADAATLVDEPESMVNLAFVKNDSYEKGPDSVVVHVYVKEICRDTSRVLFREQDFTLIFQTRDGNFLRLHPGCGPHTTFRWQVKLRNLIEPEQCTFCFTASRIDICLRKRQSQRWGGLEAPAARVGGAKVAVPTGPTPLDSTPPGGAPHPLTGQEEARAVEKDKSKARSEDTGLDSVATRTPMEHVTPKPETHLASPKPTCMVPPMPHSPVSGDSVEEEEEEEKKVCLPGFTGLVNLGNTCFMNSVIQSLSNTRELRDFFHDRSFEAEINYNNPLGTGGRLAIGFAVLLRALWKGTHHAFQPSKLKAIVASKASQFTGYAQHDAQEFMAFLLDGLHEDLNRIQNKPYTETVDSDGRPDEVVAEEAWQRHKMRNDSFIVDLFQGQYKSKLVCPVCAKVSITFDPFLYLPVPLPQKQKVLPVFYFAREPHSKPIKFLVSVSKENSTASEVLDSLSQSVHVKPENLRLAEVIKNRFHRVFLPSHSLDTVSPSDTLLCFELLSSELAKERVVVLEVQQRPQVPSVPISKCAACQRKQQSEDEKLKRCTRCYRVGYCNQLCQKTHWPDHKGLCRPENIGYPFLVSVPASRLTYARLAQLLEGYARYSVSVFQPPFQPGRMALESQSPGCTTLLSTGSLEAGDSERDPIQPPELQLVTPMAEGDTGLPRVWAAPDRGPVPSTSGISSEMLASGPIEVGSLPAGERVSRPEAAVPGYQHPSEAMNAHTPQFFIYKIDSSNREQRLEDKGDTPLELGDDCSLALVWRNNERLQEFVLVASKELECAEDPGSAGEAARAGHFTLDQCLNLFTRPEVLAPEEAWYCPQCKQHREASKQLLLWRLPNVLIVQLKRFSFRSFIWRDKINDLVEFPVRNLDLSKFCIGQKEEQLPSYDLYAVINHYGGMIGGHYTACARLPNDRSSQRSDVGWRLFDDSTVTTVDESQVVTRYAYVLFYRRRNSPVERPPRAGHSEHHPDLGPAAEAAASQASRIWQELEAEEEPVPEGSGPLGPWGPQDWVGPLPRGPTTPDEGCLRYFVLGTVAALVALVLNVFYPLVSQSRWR
Assay: USP19 fluorescence polarisation (FP) homogeneous assay with Ubiquitin-Lys-TAMRA substrate
Format: biochemical
Conditions: 2.5 nM USP19, 30 min pre-incubation, average of at least two duplicate experiments
Outline: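 Full-length USP19 preincubated 30 min at RT with inhibitor (200 μM to 2 μM series, 8–18 points) before adding 500 nM Ubiquitin-Lys-TAMRA substrate.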

pIC50	Compound
> 6.30	CC1(C)CN(C(=O)N2CCNC[C@H]2c2ccccc2)CC[C@@]1(O)Cn1ccc(-c2ccccc2)cc1=O [Example 288, 1-(((S)-4-Hydroxy-3,3-dimethyl-1-((R)-2-phenylpiperazine-1-carbonyl)piperidin-4-yl)methyl)-4-phenylpyridin-2(1H)-one]
> 6.30	Cn1nccc1-c1cc(=O)n(C[C@]2(O)CCN(C(=O)N3CCNC[C@H]3c3ccccc3)CC23CCCC3)cn1 [Example 289, 3-(((S)-10-Hydroxy-7-((R)-2-phenylpiperazine-1-carbonyl)-7-azaspiro[4.5]decan-10-yl)methyl)-6-(1-methyl-1H-pyrazol-5-yl)pyrimidin-4(3H)-one]
> 6.30	O=C(N1CC[C@@](O)(Cn2cnc(N3CCCC3)cc2=O)C2(CCCC2)C1)N1CCNC[C@H]1c1ccccc1 [Example 290, 3-(((S)-10-Hydroxy-7-((R)-2-phenylpiperazine-1-carbonyl)-7-azaspiro[4.5]decan-10-yl)methyl)-6-(pyrrolidin-1-yl)pyrimidin-4(3H)-one]
> 6.30	Cn1cc(-c2cc(=O)n(C[C@]3(O)CCN(C(=O)N4CCNC[C@H]4c4ccccc4)CC34CCCC4)cn2)cn1 [Example 291, 3-(((S)-10-Hydroxy-7-((R)-2-phenylpiperazine-1-carbonyl)-7-azaspiro[4.5]decan-10-yl)methyl)-6-(1-methyl-1H-pyrazol-4-yl)pyrimidin-4(3H)-one]
> 6.30	O=C(N1CC[C@@](O)(Cn2cnc(C3CC3)cc2=O)C2(CCCC2)C1)N1CCNC[C@H]1c1ccccc1 [Example 292, 6-Cyclopropyl-3-(((S)-10-hydroxy-7-((R)-2-phenylpiperazine-1-carbonyl)-7-azaspiro[4.5]decan-10-yl)methyl)pyrimidin-4(3H)-one]
3.60 to 4.30	O=C(N1CC[C@@](O)(Cn2cnc(-c3ccccc3)cc2=O)C2(CCCC2)C1)N1CCOC[C@H]1c1nc2ccccc2[nH]1 [Example 293, 3-(((S)-7-((R)-3-(1H-Benzo[d]imidazol-2-yl)morpholine-4-carbonyl)-10-hydroxy-7-azaspiro[4.5]decan-10-yl)methyl)-6-phenylpyrimidin-4(3H)-one]
> 6.30	O=C(N[C@H](c1ccccc1)C(F)(F)F)N1CC[C@@](O)(Cn2cnc(-c3ccccc3)cc2=O)C2(CCCC2)C1 [Example 294, (S)-10-Hydroxy-10-((6-oxo-4-phenylpyrimidin-1(6H)-yl)methyl)-N—((R)-2,2,2-trifluoro-1-phenylethyl)-7-azaspiro[4.5]decane-7-carboxamide]
5.30 to 6.30	O=C(N1CCC(O)(Cn2cnc(-c3ccccc3)cc2=O)CC1)N1CCOC[C@H]1c1ccccc1 [Example 295, (R)-3-((4-Hydroxy-1-(3-phenylmorpholine-4-carbonyl)piperidin-4-yl)methyl)-6-phenylpyrimidin-4(3H)-one]
> 6.30	O=C(N1CCC(O)(Cn2cnc(-c3ccccc3)cc2=O)C2(CCCCC2)C1)N1CCOC[C@H]1c1ccccc1 (stereo partly drawn) [Example 296, 3-((5-Hydroxy-2-((R)-3-phenylmorpholine-4-carbonyl)-2-azaspiro[5.5]undecan-5-yl)methyl)-6-phenylpyrimidin-4(3H)-one]
> 6.30	O=C(N1CCC(O)(Cn2cnc(-c3ccccc3)cc2=O)CC1)N1CCNC[C@H]1c1ccccc1 [Example 297, (R)-3-((4-Hydroxy-1-(2-phenylpiperazine-1-carbonyl)piperidin-4-yl)methyl)-6-phenylpyrimidin-4(3H)-one]
> 6.30	O=C(N1CCC(O)(Cn2cnc(-c3ccccc3)cc2=O)C2(CCCCC2)C1)N1CCNC[C@H]1c1ccccc1 (stereo partly drawn) [Example 298, 3-((5-Hydroxy-2-((R)-2-phenylpiperazine-1-carbonyl)-2-azaspiro[5.5]undecan-5-yl)methyl)-6-phenylpyrimidin-4(3H)-one]
5.30 to 6.30	O=C(N1CC[C@@](O)(Cn2cnc(-c3ccccc3)cc2=O)C2(CCCC2)C1)N1CCCN1c1ccccc1 [Example 299, (S)-3-((10-Hydroxy-7-(2-phenylpyrazolidine-1-carbonyl)-7-azaspiro[4.5]decan-10-yl)methyl)-6-phenylpyrimidin-4(3H)-one]
> 6.30	Cc1cc(=O)n(C[C@]2(O)CCN(C(=O)N3CCNC[C@H]3c3ccccc3)CC23CCCC3)cn1 [Example 300, 3-(((S)-10-Hydroxy-7-((R)-2-phenylpiperazine-1-carbonyl)-7-azaspiro[4.5]decan-10-yl)methyl)-6-methylpyrimidin-4(3H)-one]
> 6.30	O=C(NCc1cccc(F)c1F)N1CC[C@@](O)(Cn2cnc(-c3ccccc3)cc2=O)C2(CCCC2)C1 [Example 301, (S)—N-(2,3-Difluorobenzyl)-10-hydroxy-10-((6-oxo-4-phenylpyrimidin-1(6H)-yl)methyl)-7-azaspiro[4.5]decane-7-carboxamide]
> 6.30	O=C(NCc1c(F)cccc1F)N1CC[C@@](O)(Cn2cnc(-c3ccccc3)cc2=O)C2(CCCC2)C1 [Example 302, (S)—N-(2,6-Difluorobenzyl)-10-hydroxy-10-((6-oxo-4-phenylpyrimidin-1(6H)-yl)methyl)-7-azaspiro[4.5]decane-7-carboxamide]
> 6.30	O=C(NCc1ccc(F)cc1F)N1CC[C@@](O)(Cn2cnc(-c3ccccc3)cc2=O)C2(CCCC2)C1 [Example 303, (S)—N-(2,4-Difluorobenzyl)-10-hydroxy-10-((6-oxo-4-phenylpyrimidin-1(6H)-yl)methyl)-7-azaspiro[4.5]decane-7-carboxamide]
> 6.30	O=C(NCc1ccc(F)c(F)c1)N1CC[C@@](O)(Cn2cnc(-c3ccccc3)cc2=O)C2(CCCC2)C1 [Example 304, (S)—N-(3,4-Difluorobenzyl)-10-hydroxy-10-((6-oxo-4-phenylpyrimidin-1(6H)-yl)methyl)-7-azaspiro[4.5]decane-7-carboxamide]
> 6.30	O=C(N1CCC(O)(Cn2cnc(-c3ccccc3)cc2=O)C2(CCC2)C1)N1CCOC[C@H]1c1ccccc1 (stereo partly drawn) [Example 305, 3-((9-Hydroxy-6-((R)-3-phenylmorpholine-4-carbonyl)-6-azaspiro[3.5]nonan-9-yl)methyl)-6-phenylpyrimidin-4(3H)-one]
> 6.30	O=C(N1CCC(O)(Cn2cnc(-c3ccccc3)cc2=O)C2(CCC2)C1)N1CCNC[C@H]1c1ccccc1 (stereo partly drawn) [Example 306, 3-((9-Hydroxy-6-((R)-2-phenylpiperazine-1-carbonyl)-6-azaspiro[3.5]nonan-9-yl)methyl)-6-phenylpyrimidin-4(3H)-one]
> 6.30	O=C(NCC1CC(F)(F)C1)N1CC[C@@](O)(Cn2cnc(-c3ccccc3)cc2=O)C2(CCCC2)C1 [Example 307, (S)—N-((3,3-Difluorocyclobutyl)methyl)-10-hydroxy-10-((6-oxo-4-phenylpyrimidin-1(6H)-yl)methyl)-7-azaspiro[4.5]decane-7-carboxamide]
5.30 to 6.30	O=C(NC(C(F)(F)F)C(F)(F)F)N1CC[C@@](O)(Cn2cnc(-c3ccccc3)cc2=O)C2(CCCC2)C1 [Example 308, (S)—N-(1,1,1,3,3,3-Hexafluoropropan-2-yl)-10-hydroxy-10-((6-oxo-4-phenylpyrimidin-1(6H)-yl)methyl)-7-azaspiro[4.5]decane-7-carboxamide]
> 6.30	O=C(N[C@H](c1ccccc1)C(F)(F)F)N1CC[C@@](O)(Cn2ccc(-c3ccccc3)cc2=O)C2(CCCC2)C1 [Example 309, (S)-10-Hydroxy-10-((2-oxo-4-phenylpyridin-1(2H)-yl)methyl)-N—((R)-2,2,2-trifluoro-1-phenylethyl)-7-azaspiro[4.5]decane-7-carboxamide]
> 6.30	CC1(C)CN(C(=O)N2CCOC[C@H]2c2ccccc2)CC[C@@]1(O)Cn1cnc(-c2ccccc2)cc1=O [Example 310, 3-(((S)-4-Hydroxy-3,3-dimethyl-1-((R)-3-phenylmorpholine-4-carbonyl)piperidin-4-yl)methyl)-6-phenylpyrimidin-4(3H)-one]
5.30 to 6.30	O=C(NCC1(F)CC1)N1CC[C@@](O)(Cn2cnc(-c3ccccc3)cc2=O)C2(CCCC2)C1 [Example 311, (S)—N-((1-Fluorocyclopropyl)methyl)-10-hydroxy-10-((6-oxo-4-phenylpyrimidin-1(6H)-yl)methyl)-7-azaspiro[4.5]decane-7-carboxamide]
